# Experimental data from patent US7888380B2, “1,2,4-Triazolylaminoaryl (heteroaryl) sulfonamide derivatives” (Janssen Pharmaceutica, N.V., priority 2004, dated 2011).
# How the values were obtained:
# A375 malignant melanoma = assay: Inhibition of cell proliferation (14C-thymidine incorporation), A375; type: cell-based, human; conditions: Homo sapiens, A-375
# Method: (§1) The ability of a test compound to inhibit the proliferation of cell growth was determined by measuring incorporation of ^14C-labelled thymidine into newly synthesized DNA within the cells. This method was used on cell lines derived from carcinomas originating from several tissues such as HeLa cervical adenocarcinoma (American Type Culture Collection (ATCC), Virginia, Cat. #CCL-2), A375 malignant melanoma (ATCC CRL-1619), and HCT-116 colon carcinoma (CCL-247). In this way the effect of a compound on cell growth of cells with many different phenotypes can be determined. Cells were trypsinized and counted and 3000-8000 cells were added to each well of a 96-well CytoStar tissue culture treated scintillating microplate (Amersham #RPNQ0160) in complete medium in a volume of 100 μl. Cells were incubated for 24 hours in complete medium at 37° C. in an atmosphere containing 5% CO2.
# (§2) Next, 1 μl of test compound in 100% DMSO was added to the wells of the plate. DMSO only was added to control wells. Cells were incubated for 24 more hours in complete medium at 37° C. in an atmosphere containing 5% CO2. Methyl ^14C-thymidine 56 mCi/mmol (NEN #NEC568 or Amersham #CFA532) was diluted in complete medium and 0.2 uCi/well was added to each well of the CytoStar plate in a volume of 20 ul. The plate was incubated for 24 hours at 37° C. plus 5% CO2 in drug plus ^14C-thymidine. The contents of the plate were discarded into a ^14C radioactive waste container by inverting the plate and the plate was washed twice with 200 μl PBS.
# (§3) 200 μl of PBS was added to each well. The top of the plate was sealed with a transparent plate sealer and a white plate backing sealer (Packard #6005199) was applied to the bottom of the plate. The degree of methyl ^14C-thymidine incorporation was quantified on a Packard Top Count.
# VEGF-R2 kinase = target: T1, VEGF-R2 kinase (Rattus norvegicus, UniProt O08775); assay: VEGF-R2 Kinase Screening Assay; type: biochemical; conditions: 10 μM ATP; rat VEGF-R2 kinase domain; read-out: IC50 (μM) VEGFR
# T1 construct: 6xHis (polyhistidine) (N)
# T1 sequence (O08775 786-1343): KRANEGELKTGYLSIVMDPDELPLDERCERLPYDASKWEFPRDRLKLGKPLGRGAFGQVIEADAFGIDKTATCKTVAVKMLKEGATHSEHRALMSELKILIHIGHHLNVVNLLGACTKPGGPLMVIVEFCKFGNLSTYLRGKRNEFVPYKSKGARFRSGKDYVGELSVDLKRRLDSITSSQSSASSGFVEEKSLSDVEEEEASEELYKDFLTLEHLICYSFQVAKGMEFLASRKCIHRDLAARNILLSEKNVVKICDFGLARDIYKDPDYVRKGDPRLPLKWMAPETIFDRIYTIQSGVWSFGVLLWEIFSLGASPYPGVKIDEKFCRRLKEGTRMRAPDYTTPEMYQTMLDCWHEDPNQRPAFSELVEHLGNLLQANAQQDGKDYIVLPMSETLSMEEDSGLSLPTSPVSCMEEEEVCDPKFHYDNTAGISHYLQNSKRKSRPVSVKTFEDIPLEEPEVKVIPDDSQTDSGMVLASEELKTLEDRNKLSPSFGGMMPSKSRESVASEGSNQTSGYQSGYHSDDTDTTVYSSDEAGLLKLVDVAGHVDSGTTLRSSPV
# Method: A kinase reaction mixture was prepared containing 50 mM Tris-HCl pH=8, 10 mM MgCl2, 0.1 mM Na3PO4, 1 mM DTT, 10 μM ATP, 0.025 μM biotinylated peptide substrate and 0.8 μCuries per well ^33P-γ-ATP (2000-3000 Ci/mmol). 70 μL of the kinase reaction mixture was dispensed into each well of a streptavidin coated FlashPlate™ (Cat. # SMP103, NEN, Boston, Mass.). Then 1 μL of test compound stock in 100% DMSO was added to the wells resulting in a final concentration of 1% DMSO in the reaction with a 100 μL final reaction volume. Next, soluble rat tyrosine kinase containing an N-terminal 6×HIS tag was diluted in 50 mM Tris-HCl pH=8.0, 0.1% BSA at a concentration of 5 ng per μL and 30 μL (150 ng enzyme per test well) was added to each well to initiate the reaction. The reaction was incubated for one hour at 30° C. At the end of the 1 h incubation, the reaction was terminated by aspirating the reaction mixture from the plate and washing the wells twice with PBS containing 100 mM EDTA. The PLC1 biotinylated peptide substrate became immobilized on the Flashplate™ and the incorporation of ^33P-γ-ATP was measured by reading the plate on a scintillation counter. Inhibition of the enzymatic activity of the VEGF-R2 kinase was measured by observing a reduced amount of ^33P-γ-ATP incorporated into the immobilized peptide.
# (§4) VEGF-R (vascular endothelial growth factor receptor-2) is a fusion protein containing a polyhistidine tag at the N-terminus followed by amino acids 786-1343 of the rat VEGF-R2 kinase domain (GenBank Accession #U93306). CDK1 (cyclin dependent kinase 1) was isolated from insect cells expressing both the human CDK1 catalytic subunit and its positive regulatory subunit cyclin B (New England Biolabs, Beverly, Mass., Cat. # 6020). CDK2 in complex with cyclin A is commercially available (Upstate Biotech, Lake Placid, N.Y.). The HER2 (human epidermal growth factor receptor-2) construct contains a polyhistidine tag at the N-terminus followed by 24 additional amino acids and begins at amino acid 676 followed by the remainder of the HER2 cytoplasmic domain.
# CDK1:Cyclin-B = target: T2, CDK1:Cyclin-B (Homo sapiens, UniProt P06493); assay: CDK1 Screening Assay (33P-ATP FlashPlate); type: biochemical; conditions: 10 μM ATP; >10 or >100 = less than 50% inhibition at highest concentration tested
# T2 construct: purchased New England Biolabs, Beverly, Mass; 6020; host or cells: insect cells
# T2 sequence (P06493 whole entry): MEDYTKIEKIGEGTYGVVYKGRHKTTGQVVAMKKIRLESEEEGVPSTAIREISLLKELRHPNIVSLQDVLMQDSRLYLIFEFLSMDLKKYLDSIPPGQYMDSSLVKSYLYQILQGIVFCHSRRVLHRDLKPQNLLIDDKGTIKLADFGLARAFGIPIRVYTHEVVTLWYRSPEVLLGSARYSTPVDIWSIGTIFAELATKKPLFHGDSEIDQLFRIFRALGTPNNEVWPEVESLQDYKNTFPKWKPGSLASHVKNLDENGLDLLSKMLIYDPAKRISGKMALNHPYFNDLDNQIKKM
# T2 sequence (P14635 whole entry partner): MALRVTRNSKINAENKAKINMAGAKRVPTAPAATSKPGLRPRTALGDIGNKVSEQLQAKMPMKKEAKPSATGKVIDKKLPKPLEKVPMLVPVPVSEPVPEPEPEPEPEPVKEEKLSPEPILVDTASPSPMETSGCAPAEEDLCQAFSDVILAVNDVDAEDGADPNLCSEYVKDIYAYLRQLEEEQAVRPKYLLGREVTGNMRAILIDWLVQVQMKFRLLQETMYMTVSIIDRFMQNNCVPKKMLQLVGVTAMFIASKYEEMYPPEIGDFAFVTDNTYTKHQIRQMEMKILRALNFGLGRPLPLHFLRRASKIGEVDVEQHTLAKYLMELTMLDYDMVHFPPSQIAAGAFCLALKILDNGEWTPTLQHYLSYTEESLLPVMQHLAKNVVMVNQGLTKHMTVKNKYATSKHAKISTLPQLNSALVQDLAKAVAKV
# Method: A kinase reaction mixture was prepared containing 50 mM Tris-HCl pH=8, 10 mM MgCl2, 0.1 mM Na3PO4, 1 mM DTT, 10 μM ATP, 0.025 μM biotinylated histone-H1 peptide substrate and 0.2 μCuries per well ^33P-γ-ATP (2000-3000 Ci/mmol). 70 μL of the kinase reaction mixture was dispensed into each well of a streptavidin coated FlashPlate™ (Cat. # SMP103, NEN, Boston, Mass.). Then 1 μL of test compound stock in 100% DMSO was added to the wells resulting in a final concentration of 1% DMSO in the reaction with a 100 μl final reaction volume.
# Next, CDK1:Cyclin-B protein was diluted in 50 mM Tris-HCl pH=8.0, 0.1% BSA at a concentration of 1 ng per μL and 30 μL (30 ng enzyme per test well) was added to each well to initiate the reaction. The reaction was incubated for one hour at 30° C. At the end of the 1 h incubation, the reaction was terminated by aspirating the mixture from the plate and washing the wells twice with PBS containing 100 mM EDTA. The histone-H1 biotinylated peptide substrate became immobilized on the Flashplate™ and the incorporation of ^33P-γ-ATP was measured by reading the plate on a scintillation counter. Inhibition of the enzymatic activity of CDK1 was measured by observing a reduced amount of ^33P-γ-ATP incorporated into the immobilized peptide.
# as §4
# HER2 = target: T3, HER2 (Homo sapiens, UniProt P04626); assay: HER2 Kinase Screening Assay; type: biochemical; conditions: 10 μM ATP; >10 or >100 = less than 50% inhibition at highest concentration tested
# T3 construct: polyhistidine (N)
# T3 sequence (P04626 676-1255 limits assumed): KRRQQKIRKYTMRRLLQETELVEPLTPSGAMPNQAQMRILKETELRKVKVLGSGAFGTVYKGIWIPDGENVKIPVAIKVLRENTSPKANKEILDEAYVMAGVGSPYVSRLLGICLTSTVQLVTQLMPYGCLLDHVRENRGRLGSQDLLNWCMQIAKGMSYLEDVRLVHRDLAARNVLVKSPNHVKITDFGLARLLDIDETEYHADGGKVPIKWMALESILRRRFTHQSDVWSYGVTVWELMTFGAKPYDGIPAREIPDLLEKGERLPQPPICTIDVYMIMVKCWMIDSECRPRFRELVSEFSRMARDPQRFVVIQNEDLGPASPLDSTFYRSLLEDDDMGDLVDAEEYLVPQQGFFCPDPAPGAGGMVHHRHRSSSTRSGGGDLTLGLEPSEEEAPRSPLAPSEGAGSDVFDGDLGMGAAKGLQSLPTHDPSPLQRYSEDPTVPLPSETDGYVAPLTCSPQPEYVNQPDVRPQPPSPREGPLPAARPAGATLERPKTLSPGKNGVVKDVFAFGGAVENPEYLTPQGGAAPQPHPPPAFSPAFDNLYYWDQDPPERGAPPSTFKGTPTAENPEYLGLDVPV
# Method: The HER2 kinase assay was carried out as described above for the VEGF-R kinase assay except that the enzyme was replaced with a human epidermal growth factor receptor-2 (HER2) construct contains a polyhistidine tag at the N-terminus followed by 24 additional amino acids and begins at amino acid 676 (Accession #M11730) followed by the remainder of the HER2 cytoplasmic domain.
# as §4
# HCT-116 colon carcinoma = assay: Inhibition of cell proliferation (14C-thymidine incorporation), HCT116; type: cell-based, human; conditions: Homo sapiens, HCT-116
# Method: as §1, §2, §3
SMILES,IC50 (A375 malignant melanoma) [µM],IC50 (VEGF-R2 kinase) [µM],IC50 (CDK1:Cyclin-B) [µM],IC50 (HER2) [µM],IC50 (HCT-116 colon carcinoma) [µM]
"C[C@@H](N)C(=O)NS(=O)(=O)c1ccc(Nc2nc(N)n(C(=O)c3c(F)cccc3F)n2)cc1 [Compound 14, 4-[5-amino-1-(2,6-difluoro-benzoyl)-1H-[1,2,4]triazol-3-ylamino]-N—((R)-2-amino-propionyl)-benzenesulfonamide]",71.1,0.89,0.74,≥ 10,38.5
"C[C@H](N)C(=O)N[C@@H](C)C(=O)NS(=O)(=O)c1ccc(Nc2nc(N)n(C(=O)c3c(F)cccc3F)n2)cc1.O=C(O)C(F)(F)F.O=C(O)C(F)(F)F.O=C(O)C(F)(F)F [Compound 15, (S)-2-amino-N—((S)-2-{4-[5-amino-1-(2,6-difluoro-benzoyl)-1H-[1,2,4]triazol-3-ylamino]-benzenesulfonylamino}-1-methyl-2-oxo-ethyl)-propionamide 3 TFA salt]",12.1,2.03,1.36,≥ 10,20.8
"CCCC(=O)NS(=O)(=O)c1ccc(Nc2nc(N)n(C(=O)c3c(F)cccc3F)n2)cc1 [Compound 19, 4-[5-amino-1-(2,6-difluoro-benzoyl)-1H-[1,2,4]triazol-3-ylamino]-N-butyryl-benzenesulfonamide]",24.1,0.77,0.28,5,11.6

# Now from value to compound:
IC50 (A375 malignant melanoma) [µM],IC50 (VEGF-R2 kinase) [µM],IC50 (CDK1:Cyclin-B) [µM],IC50 (HER2) [µM],IC50 (HCT-116 colon carcinoma) [µM],SMILES
26.8,7.31,0.23,50,3.94,"Nc1nc(Nc2ccc(S(=O)(=O)NC(=O)[C@@H]3CCCN3)cc2)nn1C(=O)c1c(F)cccc1F [Compound 16, 4-[5-amino-1-(2,6-difluoro-benzoyl)-1H-[1,2,4]triazol-3-ylamino]-N—((S)-pyrrolidine-2-carbonyl)-benzenesulfonamide]"
> 100,1.56,0.98,20,28.4,"Nc1nc(Nc2ccc(S(=O)(=O)NC(=O)[C@@H](N)CC(=O)O)cc2)nn1C(=O)c1c(F)cccc1F [Compound 17, (S)-3-amino-4-{4-[5-amino-1-(2,6-difluoro-benzoyl)-1H-[1,2,4]triazol-3-ylamino]-benzenesulfonylamino}-4-oxo-butyric acid]"
> 100,1.54,1.93,5,> 100,"CCCCC(=O)NS(=O)(=O)c1ccc(Nc2nc(N)n(C(=O)c3c(F)cccc3F)n2)cc1 [Compound 18, 4-[5-amino-1-(2,6-difluoro-benzoyl)-1H-[1,2,4]triazol-3-ylamino]-N-pentanoyl-benzenesulfonamide]"
